The values that follow come from patent US8962018B2, “Oral formulation of anhydrous olanzapine form I” (Laboratorios Lesvi, S.L., priority 2005, dated 2015).

What all share (type): physicochemical
A short description of data set [1]: Stability of olanzapine Form I product under ambient storage conditions. Here is the method: Said method includes in vacuo drying of the solvate at a pressure ranging between 1 and 40 mmHg, preferably between 1 and 20 mmHg, and a temperature controlled between 10 and 50° C., preferably between 20 and 40° C. Said method provides olanzapine Form I in a simple manner, with a high yield of the end product (olanzapine Form I) and with high chemical purity (level of total impurities less than 0.3% as determined by HPLC), together with a high polymorphic purity (Form II<2%).

Data set [2] can be described thus: X-ray diffraction study of polymorphic form after direct compression. Conditions: after direct compression into tablets.
Data set [3] is described as follows: Effect of aqueous medium used for the coating on stability of the solid form. The settings on record: aqueous medium used for preparation of the coating.

For `Cc1cc2c(s1)Nc1ccccc1N=C2N1CCN(C)CC1` [olanzapine Form I, Olanzapine], in data set [1], the “Stability and colour variations” value was “remains stable and does not undergo colour variations”. The “Polymorphic form stability (formation of Form II)” value in data set [2] is recorded as “remains stable without any formation of detectable amounts of the polymorph Form II being observed”. In data set [3], the “Related substances and polymorphic form after aqueous coating” value is on record as “no increase of related substances nor change in the polymorphic form”.
